The target of assay [1] is T1, ALK2 R206H (GST-tagged mutant ALK2) (Homo sapiens, UniProt Q04771, R206H).
T1 construct: purchased Carna Bioscience or ThermoFisher 09-148 or PV6232
T1 sequence (Q04771 21-509 R206H): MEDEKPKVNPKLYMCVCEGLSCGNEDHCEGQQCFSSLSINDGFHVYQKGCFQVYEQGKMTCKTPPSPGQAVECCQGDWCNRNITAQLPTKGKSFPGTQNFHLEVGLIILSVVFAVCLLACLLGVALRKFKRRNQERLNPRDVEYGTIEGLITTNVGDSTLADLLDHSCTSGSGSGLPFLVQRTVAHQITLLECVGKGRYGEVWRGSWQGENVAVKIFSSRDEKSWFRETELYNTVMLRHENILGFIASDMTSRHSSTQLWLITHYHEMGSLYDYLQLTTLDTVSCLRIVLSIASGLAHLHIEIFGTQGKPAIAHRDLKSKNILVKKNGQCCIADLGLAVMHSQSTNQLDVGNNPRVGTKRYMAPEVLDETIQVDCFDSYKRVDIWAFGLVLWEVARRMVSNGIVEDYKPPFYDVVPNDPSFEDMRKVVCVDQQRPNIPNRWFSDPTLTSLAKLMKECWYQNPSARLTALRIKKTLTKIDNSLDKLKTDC
Nature of the assay: ALK binding assay (LANTHASCREEN TR-FRET competitive binding, displacement of Kinase Tracer 178). As to conditions: ALK2 R206H, LANTHASCREEN TR-FRET competitive binding; read-out: Binding Assay (IC50). A general note: TR-FRET usually uses a lanthanide donor and a delayed reading to cut background.

Another assay addresses T2, human ALK2 R206H (Homo sapiens, UniProt Q04771, R206H).
T2 construct: expressed in transfected cells; host or cells: HEK293 (ATCC CRL1573), lentivirus transduction, blasticidin selection
T2 sequence (Q04771 21-509 R206H): T1 sequence (Q04771 21-509 R206H)
Nature of the assay: Cell-based ALK2-R206H cell activity assay (Smad1-Ser463/Ser465 phosphorylation by AlphaLISA in HEK293-ALK2-R206H cells). The following applies: read-out: Cell Line (Cell Assay IC50). The gist of the method:
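Stable HEK293 cells expressing C-terminally FLAG-tagged human ALK2 R206H (lentiviral, blasticidin-selected) were treated with compounds in 10-point, 3-fold dilutions from 10 μM or 1 μM top, in duplicate. Smad1 Ser463/Ser465 phosphorylation was read by AlphaLISA.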
For orientation: Alpha assays give light when donor and acceptor beads are brought close together.

One may read the IC50 as the point on the concentration scale where inhibition reaches its midpoint.

As for `N[C@@H]1CCN(c2ccc(-c3cc4c(N5CCN(C(=O)C6CC6)CC5)ccnn4c3)cc2)C1` [Compound 462], the IC50 is below 10 nM in assay [1] and 100 to 500 nM on human ALK2 R206H.
For `O=C(C1CC1)N1CCN(c2ccnn3cc(-c4ccc(N5CCN(CC(F)F)CC5)cc4)cc23)CC1` [Compound 359], in that order: below 10 nM and above 500 nM.
With `CCN1CC(O)(c2ccc(-c3cc4c(N5CCN(C(=O)C6CC6)CC5)ccnn4c3)cc2)C1` [Compound 161], the IC50 in assay [1] is below 10 nM; at human ALK2 R206H, below 100 nM.
Take `CC(C)N1CCC[C@H](c2ccc(-c3cc4c(N5CCN(C(=O)OC6COC6)CC5)ccnn4c3)cc2)C1` [Compound 630]: the half-inhibitory concentration (IC50) in assay [1] was below 10 nM; on human ALK2 R206H, below 100 nM.
On the same counts, the results for `CC(C)N1CCC(c2ccc(-c3cc4c(N5CCN(C(=O)OC(CO)CO)CC5)ccnn4c3)cc2)CC1` [Compound 836] are below 10 nM and 100 to 500 nM.
With `CC(C)N1CCN(c2ccc(-c3cc4c(N5CCN(C(=O)C6CC6)[C@H](C)C5)ccnn4c3)cc2)CC1` [Compound 318], the IC50 in assay [1] is below 10 nM; at human ALK2 R206H, 100 to 500 nM.
For `CCN1CCC(c2ccc(-c3cc4c(N5CCN(C(=O)C6CCC(C)CC6)CC5)ccnn4c3)cc2)CC1` (centres unmarked) [Compound 415], in that order: below 10 nM and below 100 nM.
As to `CC(C)N1CCC(c2ccc(-c3cc4c(N5CCN(C(=O)[C@H]6C[C@@H]6C#N)CC5)ccnn4c3)cc2)CC1` [Compound 365], the half-maximal inhibitory concentration (IC50) is below 10 nM in assay [1] and below 100 nM on human ALK2 R206H.
For `CO[C@@]1(c2ccc(-c3cc4c(N5CCN(C(=O)NC(C)C)CC5)ccnn4c3)cc2F)CCCN(C(C)C)C1` [Compound 724], in that order: below 10 nM and below 100 nM.
`CC(C)N1CCC[C@@H](c2ccc(-c3cc4c(N5CCN(C(=O)[C@H]6CC[C@H](C#N)CC6)CC5)ccnn4c3)cc2)C1` [Compound 434]: the 50% inhibitory concentration (IC50) in assay [1] was below 10 nM; at human ALK2 R206H, below 100 nM.
On the same counts, the results for `CCOC1(c2ccc(-c3cc4c(N5CCN(C(=O)C6CC6)CC5)ccnn4c3)nc2)CCN(C(C)C)CC1` [Compound 662] are below 10 nM and below 100 nM.
On the same counts, the results for `CC(C)N1CCC(c2ccc(-c3cc4c(N5CCN(C(=O)NCCO)CC5)ccnn4c3)cc2)CC1` [Compound 353] are below 10 nM and 100 to 500 nM.
For `O=C(OC1COC1)N1CCN(c2ccnn3cc(-c4ccc(C5CCCN5)cn4)cc23)CC1` (centres unmarked) [Compound 475], the results for the 50% inhibitory concentration (IC50) (in assay [1]; at human ALK2 R206H) were below 10 nM and below 100 nM, respectively.
On the same counts, the results for `CC(C)N1CCNC(c2ccc(-c3cc4c(N5CCN(C(=O)C6CC6)CC5)ccnn4c3)cc2)C1` (centres unmarked) [Compound 516] are below 10 nM and below 100 nM.
For `CC(C)N1CCC(c2ccc(-c3cc4c(N5CCN(C(=O)C6CCOC6)CC5)ccnn4c3)cc2)CC1` (centres unmarked) [Compound 812], the IC50 in assay [1] was below 10 nM; at human ALK2 R206H it was 100 to 500 nM.
On the same counts, the results for `CC(C)N1CCC(c2ccc(-c3cc4c(N5CCN(C(=O)C6CCC6)CC5)ccnn4c3)cc2)C1` (centres unmarked) [Compound 249] are below 10 nM and below 100 nM.
For `CC(C)N1CC[C@@H](c2ccc(-c3cc4c(N5CCN(C(=O)[C@H]6C[C@H](O)C6)CC5)ccnn4c3)cc2)C1` [Compound 321], in that order: below 10 nM and below 100 nM.
`CO[C@@]1(c2ccc(-c3cc4c(N5CCN(C(=O)C6CC6)CC5)ccnn4c3)nc2)CCCN(C(C)C)C1` [Compound 625]: the concentration for half-maximal inhibition (IC50) in assay [1] was below 10 nM; on human ALK2 R206H it was below 100 nM.
On the same counts, the results for `CCNC(=O)N1CCN(c2ccnn3cc(-c4ccc([C@@H]5CCCN(C(C)C)C5)cc4)cc23)CC1` [Compound 276] are below 10 nM and below 100 nM.
On the same counts, the results for `O=C(OC1COC1)N1CCN(c2ccnn3cc(-c4ccc(C5(C(F)(F)F)CCNCC5)cc4)cc23)CC1` [Compound 843] are below 10 nM and below 100 nM.
In the case of `CC(C)N1CCC[C@](F)(c2ccc(-c3cc4c(N5CCN(C(=O)OC6COC6)CC5)ccnn4c3)nc2)C1` [Compound 696], the IC50 in assay [1] is below 10 nM; at human ALK2 R206H, below 100 nM.
As to `O=C(C1CC1)N1CCN(c2ccnn3cc(-c4ccc(O[C@H]5CCCNC5)cc4)cc23)CC1` [Compound 163], the IC50 is below 10 nM in assay [1] and below 100 nM at human ALK2 R206H.
On to `CC(C)N1CC[C@@H](c2ccc(-c3cc4c(N5CCN(C(=O)[C@H]6C[C@@H]6C#N)CC5)ccnn4c3)cc2)C1` [Compound 298], for which the values for the IC50 (in assay [1]; on human ALK2 R206H) were below 10 nM and below 100 nM, respectively.
On to `O=C(C1CC1)N1CCN(c2ccnn3cc(-c4ccc([C@@H]5CNCCO5)cc4)cc23)CC1` [Compound 131, (R)-cyclopropyl(4-(6-(4-(morpholin-2-yl)phenyl)pyrrolo[1,2-b]pyridazin-4-yl)piperazin-1-yl)methanone], for which the IC50 is below 10 nM in assay [1] and 100 to 500 nM at human ALK2 R206H.
Take `CCN1CC[C@H](c2ccc(-c3cc4c(N5CCN(C(=O)[C@H]6C[C@H]6F)CC5)ccnn4c3)cc2)C1` [Compound 226]: the concentration for half-maximal inhibition (IC50) is below 10 nM in assay [1] and below 100 nM on human ALK2 R206H.
On the same counts, the results for `CCOC1(c2ccc(-c3cc4c(N5CCN(C(=O)[C@H]6C[C@H](C#N)C6)CC5)ccnn4c3)nc2)CCN(C2COC2)CC1` [Compound 890] are below 10 nM and below 100 nM.
On the same counts, the results for `CCN1CCN(c2ccc(-c3cc4c(N5CCN(C(=O)C6CC6)C[C@@H]5C)ccnn4c3)cc2)CC1` [Compound 263] are below 10 nM and 100 to 500 nM.
For `CCN1CCC(c2ccc(-c3cc4c(N5CCN(C(=O)[C@H]6C[C@@H]6C)CC5)ccnn4c3)cc2)C1` (some centres unmarked) [Compound 208], the half-inhibitory concentration (IC50) in assay [1] was below 10 nM; on human ALK2 R206H, below 100 nM.
For `CC(C)N1CCC(O)(c2ccc(-c3cc4c(N5CCN(C(=O)C6CC6)CC5)ccnn4c3)cc2)CC1` [Compound 324], in that order: below 10 nM and below 100 nM.
For `CC(C)NC(=O)N1CCN(c2ccnn3cc(-c4ccc(C5COCCN5C(C)C)cc4)cc23)CC1` (centres unmarked) [Compound 594], the results for the IC50 (in assay [1]; at human ALK2 R206H) were below 10 nM and below 100 nM, respectively.
For `CC(C)N1CCCC(c2ccc(-c3cc4c(N5CCN(C(=O)N6CC(C#N)C6)CC5)ccnn4c3)cc2)C1` (centres unmarked) [Compound 411], in that order: below 10 nM and 100 to 500 nM.
Consider `CC(C)N1CCC(c2ccc(-c3cc4c(N5CCN(C(=O)OC6COC6)CC5)ccnn4c3)c(F)c2)CC1` [Compound 694], for which the half-maximal inhibitory concentration (IC50) in assay [1] is below 10 nM; at human ALK2 R206H, below 100 nM.
For `CCN1CC2(C1)CN(c1ccc(-c3cc4c(N5CCN(C(=O)C6CC6)CC5)ccnn4c3)cc1)C2` [Compound 241], the IC50 in assay [1] is below 10 nM; at human ALK2 R206H it was below 100 nM.
On the same counts, the results for `COC1(c2ccc(-c3cc4c(N5CCN(C(=O)[C@H]6C[C@H](C#N)C6)CC5)ccnn4c3)nc2)CCN(C(C)C)CC1` [Compound 731] are below 10 nM and below 100 nM.
On to `CCNC(=O)N1CCN(c2ccnn3cc(-c4ccc([C@@H]5CCCN(C(C)C)C5)cn4)cc23)CC1` [Compound 538], for which the IC50 is below 10 nM in assay [1] and below 100 nM at human ALK2 R206H.
For `O=C(C1CC1)N1CCN(c2ccnn3cc(-c4ccc(C5CCN(C6COC6)CC5)cc4)cc23)CC1` [Compound 310], in that order: below 10 nM and 100 to 500 nM.
For `COC1(c2ccc(-c3cc4c(N5CCN(C(=O)C6CC6)CC5)ccnn4c3)cc2)CCN([C@H](C)COC(F)F)CC1` [Compound 884], the results for the IC50 (in assay [1]; on human ALK2 R206H) were below 10 nM and below 100 nM, respectively.
Turning to `CCNC(=O)N1CCN(c2ccnn3cc(-c4ccc([C@H]5CCCN(C(C)C)C5)cc4)cc23)CC1` [Compound 277], the results for the 50% inhibitory concentration (IC50) (in assay [1]; at human ALK2 R206H) were below 10 nM and below 100 nM, respectively.
On the same counts, the results for `CC(C)N1CC[C@H](OC(F)F)[C@@H](c2ccc(-c3cc4c(N5CCN(C(=O)C6CC6)CC5)ccnn4c3)cc2)C1` [Compound 848] are below 10 nM and below 100 nM.
On the same counts, the results for `CCN1CCC(c2ccc(-c3cc4c(N5CCN(C(=O)C6CC(O)(C(F)(F)F)C6)CC5)ccnn4c3)cc2)CC1` (centres unmarked) [Compound 445] are below 10 nM and below 100 nM.
For `COC[C@H](C)N1CCC(OC)(c2ccc(-c3cc4c(N5CCN(C(=O)OC6COC6)CC5)ccnn4c3)nc2)CC1` [Compound 743], in that order: below 10 nM and below 100 nM.
As for `CCNC(=O)N1CCN(c2ccnn3cc(-c4cnc(N5CCN(C(C)C)CC5)cn4)cc23)CC1` [Compound 554], the half-inhibitory concentration (IC50) in assay [1] was below 10 nM; on human ALK2 R206H it was 100 to 500 nM.
As for `O=C(C1CC1)N1CCN(c2ccnn3cc(-c4cnn(C5CNCC(F)(F)C5)c4)cc23)CC1` (centres unmarked) [Compound 194, cyclopropyl(4-(6-(1-(5,5-difluoropiperidin-3-yl)-1H-pyrazol-4-yl)pyrrolo[1,2-b]pyridazin-4-yl)piperazin-1-yl)methanone], the IC50 in assay [1] lay within 10 to 50 nM; at human ALK2 R206H, 100 to 500 nM.
